SMILES strings stand for the structures. Marks after values point to notes of the source that are not given here. *1 amine or outer side, *2 acyl side, *3 side chain or, on linkers, in order; H or OH if unused. Where a SMILES comes first, the peptide text is derived from it. [ ]: non-standard residue; d: D form. The star is where a group is joined. NMePhe(3-Me,β,β-Me2) = CN[C@H](C(=O)O)C(C)(C)c1cccc(C)c1; X1 = C/C(=C\[C@H](C(C)C)N(C)[*:1])C(=O)[*:2]; Tle = CC(C)(C)[C@H](N)C(=O)O; NHBn = c1ccc(CN*)cc1

The source of these data is patent US7390910B2, “Compounds for treating tumors” (priority 2003, dated 2008).

Assay [1] has as its system bovine microtubule-associated protein (MAP)-rich tubulin. The assay is classed as biochemical. As for the experimental part:
Tubulin Polymerization Assays. For in vitro tubulin polymerization assays, bovine microtubule-associated protein (MAP)-rich tubulin, PEM buffer [80 mM Na-PIPES (pH 6.9), 1 mM MgCl2, and 1 mM EGTA], and GTP are purchased from Cytoskeleton (Denver, Colo.). MAP-rich tubulin (final concentration 1.5 mg/ml) is dissolved in cold PEM buffer containing 1 mM GTP (GPEM) and centrifuged at 12,000×g for 10 min at 4° C. The tubulin solution (100 μl/well) is added rapidly to wells of a low-volume, 96-well plate already containing duplicate aliquots (10 μl) of test compounds in GPEM. […] Control wells contained the same final concentration of DMSO (0.3%). After initiation of the reaction, absorbance at 340 nm is measured every minute for 60 min at 24° C. using a SpectraMax Plus plate reader (Molecular Devices, Sunnyvale, Calif.).

For a further assay, the system named is KB cells. Briefly: cells. The assay is classed as cell-based. Conditions: for IC50: 3 days, SRB. As for the experimental part: (§1) Cell Survival Assay: Standard Pharmacological Test Procedure. […] Compounds are incubated with cells for 3 days.
The subject of the next assay is KB85. As to the kind of experiment: cells. The settings on record: for IC50: 3 days, SRB. The assay is classed as cell-based. On the procedure:
as §1

The subject of another assay is KBV1. As to the kind of experiment: cells. The class given is cell-based. Conditions: for inhibition at 3 µM: KB-V1, 3000 nM; for IC50: 3 days, SRB. On the procedure: as §1

In general, IC50 refers to the point on the concentration scale where inhibition reaches its midpoint. The low end stands for inhibition by little substance, the high end for a need for much substance. What is called inhibition is the share of the control response that was lost under treatment. As for `CN[C@H](C(=O)N[C@H](C(=O)N(C)[C@H](/C=C(\C)C(=O)N1CCC[C@H]1C(=O)N1CCC[C@H]1C(=O)NCc1ccccc1)C(C)C)C(C)(C)C)C(C)(C)c1cc(C)cc(C)c1` [Example 11, 1-{(2E,4S)-2,5-Dimethyl-4-[methyl(N,β,β,3,5-pentamethyl-L-phenylalanyl-3-methyl-L-valyl)amino]hex-2-enoyl}-L-prolyl-N-benzyl-L-prolinamide], the “Tubulin Polym. % inhibition at 0.3 uM” value in assay [1] is on record as 41%. Also, the IC50 in the assay with KB cells (Homo sapiens, KB, 72 h) came to 0.00056 µM; with KB85 (72 h), 0.024 µM. The same molecule came in with an inhibition at 3 µM with KBV1 (Homo sapiens) of 8%.

With `CN[C@H](C(=O)N[C@H](C(=O)N(C)[C@H](/C=C(\C)C(O)c1ccccc1)C(C)C)C(C)(C)C)C(C)(C)c1ccccc1` (stereo partly drawn) [Example 74, N,β,β-trimethyl-L-phenylalanyl-N-1-[(1S,2E)-4-hydroxy-1-isopropyl-3-methyl-4-phenylbut-2-enyl}-N-1,3-dimethyl-L-valinamide], the “Tubulin Polym. % inhibition at 0.3 uM” value in assay [1] worked out at 73%. In addition, the half-maximal inhibitory concentration (IC50) in the assay with KB cells is 0.019 µM; in the assay with KB85 it was 0.054 µM; with KBV1 it was 0.466 µM.

Regarding `CN[C@H](C(=O)N[C@H](C(=O)N(C)[C@H](/C=C(\C)P(=O)(O)O)C(C)C)C(C)(C)C)C(C)(C)c1ccccc1` [Example 72, N,β,β-trimethyl-L-phenylalanyl-N^1-[(1S,2E)-1-isopropyl-3-phosphonobut-2-enyl]-N^1,3-dimethyl-L-valinamide], the “Tubulin Polym. % inhibition at 0.3 uM” value in assay [1] is on record as 53%. Also, the inhibition at 3 µM in the assay with KB cells (Homo sapiens, 72 h, 3000 nM) was 0%; in the assay on KB85 (3000 nM) it was 0%; with KBV1 (Homo sapiens), 4%.

For `CN[C@H](C(=O)N[C@H](C(=O)N(C)[C@H](/C=C(\C)[C@H](O)c1ccccc1)C(C)C)C(C)(C)C)C(C)(C)c1ccccc1` [Example 76, N,β,β-trimethyl-L-phenylalanyl-N-1-[(1S,2E,4S)-4-hydroxy-1-isopropyl-3-methyl-4-phenylbut-2-enyl}-N-1,3-dimethyl-L-valinamide], the “Tubulin Polym. % inhibition at 0.5 uM” value in assay [1] (0.5 uM) is recorded as 63*** %. The IC50 came out at 0.016 µM in the assay on KB cells, 0.022 µM with KB85 and 0.19 µM in the assay with KBV1.

For `CN[C@H](C(=O)N[C@H](C(=O)N(C)[C@H](/C=C(\C)C(=O)N1CCN(Cc2ccccc2)CC1)C(C)C)C(C)(C)C)C(C)(C)c1cccc(Cl)c1` [Example 16, 3-Chloro-N,β,β-trimethyl-L-phenylalanyl-N^1-[(1S,2E)-4-(4-benzylpiperazin-1-yl)-1-isopropyl-3-methyl-4-oxobut-2-enyl]-N^1,3-dimethyl-L-valinamide], the “Tubulin Polym. % inhibition at 0.3 uM” value in assay [1] was 62%. Also, the concentration for half-maximal inhibition (IC50) in the assay with KB cells (Homo sapiens, KB, 72 h) worked out at 0.039 µM; in the assay on KB85 (72 h), 0.06 µM; in the assay on KBV1 (Homo sapiens, KB-V1, 72 h), 0.803 µM.

With `CN[C@H](C(=O)N[C@H](C(=O)N(C)[C@H](/C=C(\C)C(=O)N1CCC[C@H]1C(=O)O)C(C)C)C(C)(C)C)C(C)(C)C1CCCCC1` [Example 46, 3-cyclohexyl-N-methyl-L-valyl-N^1-{(1S,2E)-4-[(2S)-2-carboxypyrrolidin-1-yl]-1-isopropyl-3-methyl-4-oxobut-2-enyl}-N^1,3-dimethyl-L-valinamide], the “Tubulin Polym. % inhibition at 0.3 uM” value in assay [1] is 99%. The half-inhibitory concentration (IC50) in the assay on KB cells (Homo sapiens, KB, 72 h) was 0.45 µM; with KB85 (72 h) it was 1.72 µM. Further, at 3 µM the inhibition in the assay with KBV1 (Homo sapiens) was 1%.

For `CN[C@H](C(=O)N[C@H](C(=O)N(C)[C@@H](/C=C(\C)C(=O)OCc1ccc(OCc2ccccc2)cc1)C(C)C)C(C)(C)C)C(C)(C)c1ccccc1` [Example 54, N,β,β-trimethyl-L-phenylalanyl-N^1-((1R,2E)-4-{[4-(benzyloxy)benzyl]oxy}-1-isopropyl-3-methyl-4-oxobut-2-enyl)-N^1,3-dimethyl-L-valinamide], the “Tubulin Polym. % inhibition at 0.3 uM” value in assay [1] turned out to be 55%. Further, the IC50 in the assay on KB cells (Homo sapiens, KB, 72 h) came to 0.136 µM; with KB85 (72 h), 0.846 µM. The molecule also yielded an inhibition at 3 µM with KBV1 (Homo sapiens) of 8%.

As for `CN[C@H](C(=O)N[C@H](C(=O)N(C)[C@H](/C=C(\C)C(=O)N1CCC[C@H]1C(=O)OC)C(C)C)C(C)(C)C)C(C)(C)c1cccc(C)c1` [Example 21, N,β,β,3-Tetramethyl-L-phenylalanyl-N^1-{(1S,2E)-4-[(2S)-2-(methoxycarbonyl)pyrrolidin-1-yl]-1-isopropyl-3-methyl-4-oxobut-2-enyl}-N^1,3-dimethyl-L-valinamide], in assay [1], the “Tubulin Polym. % inhibition at 0.3 uM” value is listed as 89%. The IC50 in the assay on KB cells (Homo sapiens, KB, 72 h) came to 0.0016 µM; in the assay with KB85 (72 h), 0.0062 µM; with KBV1 (Homo sapiens, KB-V1, 72 h), 0.275 µM.

Consider `CN[C@H](C(=O)N[C@H](C(=O)N(C)[C@H](/C=C(\C)C(=O)N1CCOCC1)C(C)C)C(C)(C)C)C(C)(C)c1cccc(C)c1` [Example 1, N,β,β,3-Tetramethyl-L-phenylalanyl-N^1-[(1S,2E)-1-isopropyl-3-methyl-4-morpholin-4-yl-4-oxobut-2-enyl]-N^1,3-dimethyl-L-valinamide], for which, in assay [1], the “Tubulin Polym. % inhibition at 0.3 uM” value stood at 79%. Also, the IC50 with KB cells (Homo sapiens, KB, 72 h) was 0.0195 µM; in the assay with KB85 (72 h) it was 0.056 µM; with KBV1 (Homo sapiens, KB-V1, 72 h), 1.51 µM.

For `CN[C@H](C(=O)N[C@H](C(=O)N(C)[C@H](/C=C(\C)C(=O)N1CCC[C@@H]1C(=O)N1CCC[C@@H]1C(=O)NCc1ccccc1)C(C)C)C(C)(C)C)C(C)(C)c1cccc(C)c1.O=C(O)C(F)(F)F` [Example 9, 1-{(2E,4S)-2,5-Dimethyl-4-[methyl(N,β,β,3-tetramethyl-L-phenylalanyl-3-methyl-L-valyl)amino]hex-2-enoyl}-D-prolyl-N-benzyl-D-prolinamide trifluoroacetic acid salt] (H-[NMePhe(3-Me,β,β-Me2)][Tle][X1][dP][dP]-NHBn), in assay [1], the “Tubulin Polym. % inhibition at 0.3 uM” value is 56%. Further, the concentration for half-maximal inhibition (IC50) in the assay on KB cells (Homo sapiens, KB, 72 h) worked out at 0.0014 µM; with KB85 (72 h), 0.023 µM. For the same molecule, the inhibition at 3 µM with KBV1 (Homo sapiens) was determined as 21%.

Regarding `CN[C@H](C(=O)N[C@H](C(=O)N(C)[C@H](/C=C(\C)C(=O)N1CCC[C@H]1[C@H](OC)[C@@H](C)C(=O)N1C(=O)O[C@@H](c2ccccc2)[C@H]1C)C(C)C)C(C)(C)C)C(C)(C)C1CCCCC1` [Example 51, 3-cyclohexyl-N-methyl-L-valyl-N^1-[(1S,2E)-1-isopropyl-4-((2S)-2-{(1R,2R)-1-meyhoxy-2-methyl-3-[(4R,5S)-4-methyl-2-oxo-5-phenyl-1,3-oxazolidin-3-yl]-3-oxopropyl}pyrrolidin-1-yl)-3-methyl-4-oxobut-2-enyl]-N^1,3-dimethyl-L-valinamide], the “Tubulin Polym. % inhibition at 0.3 uM” value in assay [1] worked out at 82%. Further, the concentration for half-maximal inhibition (IC50) was found to be 0.022 µM in the assay on KB cells, 0.061 µM in the assay with KB85 and 1.77 µM in the assay with KBV1.

Take `CN[C@H](C(=O)N[C@H](C(=O)N(C)[C@H](/C=C(\C)C(C)O)C(C)C)C(C)(C)C)C(C)(C)c1ccccc1` (stereo partly drawn) [Example 78, N,β,β-trimethyl-L-phenylalanyl-N-1-[(1S,2E)-4-hydroxy-1-isopropyl-3-methylpent-2-enyl]-N-1,3-dimethyl-L-valinamide]: the “Tubulin Polym. % inhibition at 0.3 uM” value in assay [1] was 75%. Also, the IC50 in the assay with KB cells is 0.063 µM; in the assay on KB85 it was 0.172 µM; in the assay on KBV1, 1.46 µM.

In the case of `CN[C@H](C(=O)N[C@H](C(=O)N(C)[C@H](/C=C(\C)C(=O)N1CC=C[C@H]1C(=O)OC)C(C)C)C(C)(C)C)C(C)(C)c1ccccc1` [Example 47, N,β,β-trimethyl-L-phenylalanyl-N^1-{(1S,2E)-1-isopropyl-4-[(2S)-2-(methoxycarbonyl)-2,5-dihydro-1H-pyrrol-1-yl]-3-methyl-4-oxobut-2-enyl}-N^1,3-dimethyl-L-valinamide], the “Tubulin Polym. % inhibition at 0.3 uM” value in assay [1] is 88(2) %. Besides, the half-maximal inhibitory concentration (IC50) worked out at 0.0035 µM in the assay on KB cells (Homo sapiens, KB, 72 h); 0.017 µM in the assay on KB85 (72 h); 0.272 µM in the assay with KBV1 (Homo sapiens, KB-V1, 72 h).

In the case of `CN[C@H](C(=O)N[C@H](C(=O)N(C)[C@H](/C=C(\C)C(=O)N1CCC[C@@H]1C(=O)OC)C(C)C)C(C)(C)C)C(C)(C)c1ccccc1` [Example 41, N,β,β-trimethyl-L-phenylalanyl-N^1-{(1S,2E)-4-[(2R)-2-(methoxycarbonyl)pyrrolidin-1-yl]-1-isopropyl-3-methyl-4-oxobut-2-enyl}-N^1,3-dimethyl-L-valinamide], in assay [1], the “Tubulin Polym. % inhibition at 0.3 uM” value is 96%. The IC50 in the assay with KB cells (Homo sapiens, KB, 72 h) amounted to 0.016 µM; in the assay on KB85 (72 h), 0.051 µM; in the assay with KBV1 (Homo sapiens, KB-V1, 72 h) it was 1.1 µM.

Regarding `CN[C@H](C(=O)N[C@H](C(=O)N(C)[C@H](/C=C(\C)C(=O)N1CCN(CCCN(C)C)CC1)C(C)C)C(C)(C)C)C(C)(C)c1ccccc1` [Example 38, N,β,β-trimethyl-L-phenylalanyl-N^1-((1S,2E)-4-{4-[3-(dimethylamino)propyl]piperazin-1-yl}-1-isopropyl-3-methyl-4-oxobut-2-enyl)-N^1,3-dimethyl-L-valinamide], the “Tubulin Polym. % inhibition at 0.3 uM” value in assay [1] came out at 75%. In addition, the half-maximal inhibitory concentration (IC50) in the assay on KB cells (Homo sapiens, KB, 72 h) stood at 0.02 µM; in the assay on KB85 (72 h), 0.529 µM. For the same molecule, in the assay with KBV1 (Homo sapiens), at 3 µM the inhibition was 0%.

`CN[C@H](C(=O)N[C@H](C(=O)N(C)[C@H](/C=C(\C)C(=O)N1CCCC[C@H]1C(=O)O)C(C)C)C(C)(C)C)C(C)(C)c1ccccc1` [Example 50, N,β,β-trimethyl-L-phenylalanyl-N^1-{(1S,2E)-4-[(2S)-2-carboxypiperidin-1-yl]-1-isopropyl-3-methyl-4-oxobut-2-enyl}-N^1,3-dimethyl-L-valinamide]: in assay [1], the “Tubulin Polym. % inhibition at 0.3 uM” value is on record as 84(2) %. The concentration for half-maximal inhibition (IC50) was 0.064 µM in the assay on KB cells (Homo sapiens, KB, 72 h) and 0.27 µM in the assay with KB85 (72 h). Also, the inhibition at 3 µM in the assay with KBV1 (Homo sapiens) was found to be 9%.
